# Data published in US20240206462A1, “ESSENTIAL OIL-BASED AGRICULTURAL COMPOSITION AND METHOD FOR CONTROLLING A PEST USING THE SAME” (MOMENTIVE PERFORMANCE MATERIALS INC., priority 2021, published 2024).
# System: tomato grey mold (Botrytis cinerea)
# Test: Plate method growth inhibition of fungal plant pathogen on PDA medium
# Format: cell-based
# Conditions: concluded from geraniol-based compositions
smiles,measurement,value
"CC(C)=CCCC(C)=CCO [geraniol, 3,7-dimethylocta-2,6-dien-1-ol]","inhibition activity on Botrytis genus, especially Botrytis cinerea",high inhibition activity
